Experimental data: ChEMBL document CHEMBL1777767, “Efficient radiosynthesis of 2-[(18)f]fluoroadenosine: a new route to 2-[(18)f]fluoropurine nucleosides” (ACS Med Chem Lett, 2010)

Key:
Format in all cases: ADME, organism-based
Conditions in all cases: in vivo, 1 h
Intestine = assay: Biodistribution in Sprague-Dawley rat intestine at 10.36 to 13.69 MBq, iv after 60 mins by gamma counting
Lung = assay: Biodistribution in Sprague-Dawley rat lung at 10.36 to 13.69 MBq, iv after 60 mins by gamma counting
Liver = assay: Biodistribution in Sprague-Dawley rat liver at 10.36 to 13.69 MBq, iv after 60 mins by gamma counting
Spleen = assay: Biodistribution in Sprague-Dawley rat spleen at 10.36 to 13.69 MBq, iv after 60 mins by gamma counting
Blood = assay: Biodistribution in Sprague-Dawley rat blood at 10.36 to 13.69 MBq, iv after 60 mins by gamma counting
[1] = Biodistribution in Sprague-Dawley rat urine at 10.36 to 13.69 MBq, iv after 60 mins by gamma counting
Kidney = assay: Biodistribution in Sprague-Dawley rat kidney at 10.36 to 13.69 MBq, iv after 60 mins by gamma counting
Brain = assay: Biodistribution in Sprague-Dawley rat brain at 10.36 to 13.69 MBq, iv after 60 mins by gamma counting
Thymus = assay: Biodistribution in Sprague-Dawley rat thymus at 10.36 to 13.69 MBq, iv after 60 mins by gamma counting
Heart = assay: Biodistribution in Sprague-Dawley rat heart at 10.36 to 13.69 MBq, iv after 60 mins by gamma counting

## Nc1nc([18F])nc2c1ncn2[C@@H]1O[C@H](CO)[C@@H](O)[C@H]1O
Intestine
  Drug uptake: 1.45 % ID/g
Lung
  Drug uptake: 9.15 % ID/g
Liver
  Drug uptake: 0.72 % ID/g
Spleen
  Drug uptake: 2.85 % ID/g
Blood
  Drug uptake: 0.47 % ID/g
[1]
  Drug uptake: 6.7 % ID/g
Kidney
  Drug uptake: 3.75 % ID/g
Brain
  Drug uptake: 0.06 % ID/g
Thymus
  Drug uptake: 0.65 % ID/g
Heart
  Drug uptake: 3.22 % ID/g
